Source: patent publication US11524966B1 (Valo Early Discovery, Inc., priority 2017, dated 2022)
pIC50: −log10 of the molar value.

Biological target: T1, USP28 (His-tagged USP28-FL-mammalian) (Homo sapiens, UniProt Q96RU2)
T1 construct: Expression of USP28 (1-1077)-TEV-6*His (pTT5 vector); made in house; host or cells: Expi293f cells (pTT5 vector)
T1 sequence (Q96RU2 1-1077): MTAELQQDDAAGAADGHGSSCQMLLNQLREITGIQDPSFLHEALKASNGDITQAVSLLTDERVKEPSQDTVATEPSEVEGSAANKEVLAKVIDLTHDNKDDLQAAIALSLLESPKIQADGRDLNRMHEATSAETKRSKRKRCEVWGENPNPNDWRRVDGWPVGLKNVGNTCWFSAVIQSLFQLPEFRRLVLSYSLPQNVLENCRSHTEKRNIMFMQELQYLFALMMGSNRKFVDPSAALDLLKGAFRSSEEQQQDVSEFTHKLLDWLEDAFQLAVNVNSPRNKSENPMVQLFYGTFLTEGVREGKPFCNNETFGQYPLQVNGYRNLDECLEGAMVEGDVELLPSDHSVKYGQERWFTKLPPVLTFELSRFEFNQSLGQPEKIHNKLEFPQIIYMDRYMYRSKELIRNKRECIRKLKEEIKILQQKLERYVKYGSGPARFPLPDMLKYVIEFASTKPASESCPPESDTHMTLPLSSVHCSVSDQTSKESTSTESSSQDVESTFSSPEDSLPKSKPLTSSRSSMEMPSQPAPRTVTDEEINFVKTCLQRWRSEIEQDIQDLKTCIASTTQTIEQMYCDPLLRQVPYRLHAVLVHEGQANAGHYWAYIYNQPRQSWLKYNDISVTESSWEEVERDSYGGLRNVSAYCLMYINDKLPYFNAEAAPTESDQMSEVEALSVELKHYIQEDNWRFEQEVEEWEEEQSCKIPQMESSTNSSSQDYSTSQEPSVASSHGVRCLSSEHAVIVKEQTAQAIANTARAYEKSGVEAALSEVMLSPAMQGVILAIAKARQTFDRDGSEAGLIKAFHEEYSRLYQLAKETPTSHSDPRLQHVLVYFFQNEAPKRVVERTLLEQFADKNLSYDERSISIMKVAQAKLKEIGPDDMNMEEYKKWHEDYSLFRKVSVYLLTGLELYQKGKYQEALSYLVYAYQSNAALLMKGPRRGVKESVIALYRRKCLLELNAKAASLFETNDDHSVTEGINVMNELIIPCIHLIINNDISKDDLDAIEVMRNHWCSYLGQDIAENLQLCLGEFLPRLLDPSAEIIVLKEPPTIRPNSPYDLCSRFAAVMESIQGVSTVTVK
Test: Ubiquitin-Rhodamine 110 Assay for USP28 Activity, Example A-1(a)
Type: biochemical
Conditions: Ubiquitin-Rhodamine 110 assay, Example A-1(a); read-out: USP28 A-1(a) IC50 range
Procedure, shortened: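 Full-length His-tagged USP28 (1-1077, Expi293F-expressed; […]) was preincubated 30 min with compound (25 μM–1.3 nM, 10-point 3-fold) in 20 mM Tris-HCl pH 8.0, 3 mM BME, 0.03% BGG, 0.01% Triton X-100. Ub-Rh110 (25 nM) was then added for 45 min at room temperature, stopped with citric acid, and read by fluorescence (485/535 nm).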

Row | SMILES | pIC50
1 | Cc1ccc2c(N)c(C(=O)N[C@H]3CCc4cc(N5CC6CNCC(C5)O6)c(F)cc4C3)sc2n1 [Example 101, 3-amino-N-[(2S)-7-fluoro-6-{9-oxa-3,7-diazabicyclo[3.3.1]nonan-3-yl}-1,2,3,4-tetrahydronaphthalen-2-yl]-6-methylthieno[2,3-b]pyridine-2-carboxamide] | 7.30 to 9.00
2 | Cc1cnc2c(N)c(C(=O)N[C@H]3COc4c(F)c(N5CC6CCC(C5)N6)cc(F)c4C3)sc2n1 [Example 107, 7-amino-N-[(3R)-7-{3,8-diazabicyclo[3.2.1]octan-3-yl}-5,8-difluoro-3,4-dihydro-2H-1-benzopyran-3-yl]-3-methylthieno[2,3-b]pyrazine-6-carboxamide] | 7.30 to 9.00
3 | CO[C@H]1CN(c2cc(F)c3c(c2)CC[C@H](NC(=O)c2sc4nc(C)ccc4c2N)C3)C[C@@H]1N [Example 136, 3-amino-N-[(2S)-6-[(3S,4S)-3-amino-4-methoxypyrrolidin-1-yl]-8-fluoro-1,2,3,4-tetrahydronaphthalen-2-yl]-6-methylthieno[2,3-b]pyridine-2-carboxamide] | < 5.70
4 | Cc1ccc2c(N)c(C(=O)N[C@H]3COc4cc(C5CC6COCC(C5)N6)ccc4C3)sc2n1 (stereo partly drawn) [Example 125, 3-amino-6-methyl-N-[(3R)-7-{3-oxa-9-azabicyclo[3.3.1]nonan-7-yl}-3,4-dihydro-2H-1-benzopyran-3-yl]thieno[2,3-b]pyridine-2-carboxamide] | 7.30 to 9.00
5 | COC[C@@H]1CN(c2ccc3c(c2)OC[C@H](NC(=O)c2sc4nc(C)ccc4c2N)C3)CCN1 [Example 158, 3-amino-N-[(3R)-7-[(3S)-3-(methoxymethyl)piperazin-1-yl]-3,4-dihydro-2H-1-benzopyran-3-yl]-6-methylthieno[2,3-b]pyridine-2-carboxamide] | 6.70 to 7.30
6 | Cc1ccc2c(N)c(C(=O)N[C@H]3COc4c(F)c(N5CC6CCC(C5)N6)cc(F)c4C3)oc2n1 [Example 172, 3-amino-N-[(3R)-7-{3,8-diazabicyclo[3.2.1]octan-3-yl}-5,8-difluoro-3,4-dihydro-2H-1-benzopyran-3-yl]-6-methylfuro[2,3-b]pyridine-2-carboxamide] | 5.70 to 6.70
7 | Cc1ccc2c(N)c(C(=O)N[C@H]3COc4c(ccc(N5CC6CNCC(C5)O6)c4F)C3)sc2n1 [Example 105, 3-amino-N-[(3R)-8-fluoro-7-{9-oxa-3,7-diazabicyclo[3.3.1]nonan-3-yl}-3,4-dihydro-2H-1-benzopyran-3-yl]-6-methylthieno[2,3-b]pyridine-2-carboxamide] | 7.30 to 9.00
8 | CO[C@@H]1CN(c2ccc3c(c2)OC[C@H](NC(=O)c2sc4nc(C)sc4c2N)C3)C[C@@H]1N [Example 149, 6-amino-N-[(3R)-7-[(3S,4R)-3-amino-4-methoxypyrrolidin-1-yl]-3,4-dihydro-2H-1-benzopyran-3-yl]-2-methylthieno[2,3-d][1,3]thiazole-5-carboxamide] | 7.30 to 9.00
9 | Cc1ccc2c(N)c(C(=O)N[C@H]3COc4cc(N5C[C@H](OC6CCC6)[C@@H](N)C5)ccc4C3)sc2n1 [Example 141, 3-amino-N-[(3R)-7-[(3S,4S)-3-amino-4-cyclobutoxypyrrolidin-1-yl]-3,4-dihydro-2H-1-benzopyran-3-yl]-6-methylthieno[2,3-b]pyridine-2-carboxamide] | 7.30 to 9.00
10 | COC[C@H]1CN(c2ccc3c(c2)OC[C@H](NC(=O)c2sc4nc(C)ccc4c2N)C3)CCN1 [Example 157, 3-amino-N-[(3R)-7-[(3R)-3-(methoxymethyl)piperazin-1-yl]-3,4-dihydro-2H-1-benzopyran-3-yl]-6-methylthieno[2,3-b]pyridine-2-carboxamide] | 7.30 to 9.00
11 | Cc1ccc2c(N)c(C(=O)N[C@H]3CCc4cc(N5CC6CCC(C5)N6)ccc4C3)oc2n1 [Example 171, 3-amino-N-[(2S)-6-{3,8-diazabicyclo[3.2.1]octan-3-yl]-1,2,3,4-tetrahydronaphthalen-2-yl]-6-methylfuro[2,3-b]pyridine-2-carboxamide] | < 5.70
12 | CCO[C@@H]1CN(c2ccc3c(c2)OC[C@H](NC(=O)c2sc4nc(C)ccc4c2N)C3)C[C@@H]1N [Example 151, 3-amino-N-[(3R)-7-[(3S,4R)-3-amino-4-ethoxypyrrolidin-1-yl]-3,4-dihydro-2H-1-benzopyran-3-yl]-6-methylthieno[2,3-b]pyridine-2-carboxamide] | 7.30 to 9.00
13 | Cc1ccc2c(N)c(C(=O)N[C@H]3COc4cc(N5CC[C@@H]6CNC[C@@H]65)ccc4C3)sc2n1 [Example 165, N-[(3R)-7-[(3aR,6aR)-octahydropyrrolo[2,3-c]pyrrol-1-yl]-3,4-dihydro-2H-1-benzopyran-3-yl]-3-amino-6-methylthieno[2,3-b]pyridine-2-carboxamide] | 7.30 to 9.00
14 | COC[C@@H]1CN(c2ccc3c(c2)OC[C@H](NC(=O)c2sc4nc(C)ccc4c2N)C3)C[C@H]1N [Example 163, 3-amino-N-[(3R)-7-[(3S,4R)-3-amino-4-(methoxymethyl)pyrrolidin-1-yl]-3,4-dihydro-2H-1-benzopyran-3-yl]-6-methylthieno[2,3-b]pyridine-2-carboxamide] | 7.30 to 9.00
